Experimental data from PubChem BioAssay (NCI).
Where “and” joins values, the source holds several entries; their conditions need not be identical. Equal values may be shown once.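 Cultured in 96-well plates, cells were exposed to test compound for 48 hours across five concentrations. Abbreviation: GI50, concentration required for 50% inhibition of growth. TGI denotes the concentration required for complete inhibition of growth.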

How the values were obtained:
Assay in all cases: NCI anticancer screen, dose series, 48 h
MDA-MB-435 = tested on: MDA-MB-435
UO-31 renal = tested on: UO-31 renal
A498 renal = tested on: A498 renal
K-562 leukemia = tested on: K-562 leukemia
OVCAR-3 ovarian = tested on: OVCAR-3 ovarian
DU-145 prostate = tested on: DU-145 prostate
OVCAR-8 ovarian = tested on: OVCAR-8 ovarian
SF-295 CNS = tested on: SF-295 CNS
SK-OV-3 ovarian = tested on: SK-OV-3 ovarian
MOLT-4 leukemia = tested on: MOLT-4 leukemia
SNB-75 CNS = tested on: SNB-75 CNS
HL-60(TB) leukemia = tested on: HL-60(TB) leukemia
HOP-92 NSCLC = tested on: HOP-92 NSCLC
SF-539 CNS = tested on: SF-539 CNS

For `S=C1SC(=Nc2ccccc2)C(=Nc2ccccc2)N1c1ccccc1`, the TGI (MDA-MB-435) was > 100 µM, the TGI (UO-31 renal) was > 100 µM and the TGI (A498 renal) was > 100 µM. The TGI (K-562 leukemia) was > 100 µM, the TGI (OVCAR-3 ovarian) was > 100 µM and the TGI (DU-145 prostate) was > 100 µM. For the same compound, the TGI (OVCAR-8 ovarian) was > 100 µM, the TGI (SF-295 CNS) was > 100 µM and the TGI (SK-OV-3 ovarian) was > 100 µM. For the same compound, the TGI (MOLT-4 leukemia) was > 100 µM and the TGI (SNB-75 CNS) was 73.7 µM.

In the case of `CC(C)=CC1C(COC(=O)c2cc3c(cc2Cl)OCO3)C1(C)C` (stereo not drawn), the TGI (MDA-MB-435) is reported as > 100 µM, the TGI (UO-31 renal) is reported as > 100 µM and the TGI (A498 renal) is reported as 90.6 µM. For the same compound, the TGI (K-562 leukemia) was > 100 µM, the TGI (OVCAR-3 ovarian) was 65.1 µM and the TGI (DU-145 prostate) was > 100 µM. For the same compound, the TGI (OVCAR-8 ovarian) was > 100 µM, the TGI (HL-60(TB) leukemia) was 47.6 µM and the TGI (SF-295 CNS) was > 100 µM. The TGI (MOLT-4 leukemia) was > 100 µM and the TGI (HOP-92 NSCLC) was 78 µM.

`CC1C(=O)OC2CC[N+]3(CC(=O)c4ccc(Br)cc4)CC=C(COC(=O)C(C)(O)C1(C)O)C23` (stereo not drawn) was tested, and the TGI (UO-31 renal) was > 375 µM, the TGI (A498 renal) was > 375 µM and the TGI (K-562 leukemia) was > 375 µM. The TGI (OVCAR-3 ovarian) was > 375 µM, the TGI (SF-539 CNS) was > 375 µM and the TGI (OVCAR-8 ovarian) was > 17.4 µM. For the same compound, the TGI (HL-60(TB) leukemia) was > 375 µM, the TGI (SF-295 CNS) was > 375 µM and the TGI (SK-OV-3 ovarian) was > 375 µM. For the same compound, the TGI (MOLT-4 leukemia) was > 375 µM, the TGI (SNB-75 CNS) was > 375 µM and the TGI (HOP-92 NSCLC) was > 375 µM.

`N#C[S-].[Nd+3].c1cnc2c(c1)ccc1cccnc12.c1cnc2c(c1)ccc1cccnc12.c1cnc2c(c1)ccc1cccnc12` was tested, and the TGI (UO-31 renal) was 11.2 µM, the TGI (A498 renal) was 13.6 µM and the TGI (K-562 leukemia) was > 100 µM. It also gave a TGI (OVCAR-3 ovarian) of 16.1 µM, a TGI (SF-539 CNS) of 14 µM and a TGI (SF-295 CNS) of 0.991 µM. For the same compound, the TGI (SK-OV-3 ovarian) was 12.5 µM, the TGI (MOLT-4 leukemia) was 6.64 µM and the TGI (SNB-75 CNS) was 26.2 µM. For the same compound, the TGI (HOP-92 NSCLC) was 17.2 µM.

In the case of `CN1C(=O)c2ccccc2NC(=O)c2cnn(C)c21`, the TGI (UO-31 renal) is reported as > 100 µM, the TGI (A498 renal) is reported as > 100 µM and the TGI (K-562 leukemia) is reported as > 100 µM. The TGI (OVCAR-3 ovarian) was > 100 µM, the TGI (SF-539 CNS) was > 100 µM and the TGI (OVCAR-8 ovarian) was > 100 µM. The TGI (HL-60(TB) leukemia) was > 100 µM, the TGI (SF-295 CNS) was > 100 µM and the TGI (SK-OV-3 ovarian) was > 100 µM. The TGI (MOLT-4 leukemia) was > 100 µM, the TGI (SNB-75 CNS) was > 100 µM and the TGI (HOP-92 NSCLC) was > 100 µM.

For `CC1=C(C)C(=O)O[C@@H]([C@](C)(O)[C@]2(O)CC[C@@]3(O)[C@@H]4C[C@H]5O[C@]56[C@@H](O)C=CC(=O)[C@]6(C)[C@H]4CC[C@]23C)C1`, the TGI (UO-31 renal) was 6.36 µM, the GI50 (A498 renal) was 1.12 µM and 0.376 µM and the TGI (A498 renal) was 11.1 µM and 2.08 µM. The GI50 (K-562 leukemia) was 0.126 µM and 0.0515 µM, the TGI (K-562 leukemia) was 2.62 µM and 15 µM and the GI50 (OVCAR-3 ovarian) was 0.136 µM and 0.0594 µM. For the same compound, the TGI (OVCAR-3 ovarian) was 1.64 µM and 0.359 µM, the TGI (SF-539 CNS) was 6.13 µM and the GI50 (OVCAR-8 ovarian) was 0.155 µM. For the same compound, the TGI (OVCAR-8 ovarian) was 4.2 µM, the GI50 (HL-60(TB) leukemia) was 0.0665 µM and 0.053 µM and the TGI (SF-295 CNS) was 19.5 µM. For the same compound, the TGI (SK-OV-3 ovarian) was 14.7 µM and 20.4 µM, the GI50 (MOLT-4 leukemia) was 0.0688 µM and 0.177 µM and the TGI (SNB-75 CNS) was 0.884 µM. For the same compound, the TGI (HOP-92 NSCLC) was 0.345 µM.

`O=c1[nH]c(Nc2ccc(F)c(Cl)c2)nc2nc[nH]c12` was tested, and the TGI (MDA-MB-435) was > 100 µM, the TGI (UO-31 renal) was > 100 µM and the TGI (A498 renal) was > 100 µM. For the same compound, the TGI (OVCAR-3 ovarian) was > 100 µM, the TGI (DU-145 prostate) was > 100 µM and the TGI (SF-539 CNS) was > 100 µM. The TGI (OVCAR-8 ovarian) was > 100 µM, the TGI (HL-60(TB) leukemia) was > 100 µM and the TGI (SF-295 CNS) was > 100 µM. For the same compound, the TGI (SK-OV-3 ovarian) was > 100 µM, the TGI (MOLT-4 leukemia) was 39.5 µM and the TGI (SNB-75 CNS) was 97.8 µM. The TGI (HOP-92 NSCLC) was > 100 µM.

With `COc1cc(O)cc(/C=C/c2ccc(O)cc2)c1` the TGI (MDA-MB-435) was > 100 µM, the TGI (UO-31 renal) was > 100 µM and the TGI (A498 renal) was 94.3 µM. The TGI (K-562 leukemia) was 98.2 µM, the TGI (OVCAR-3 ovarian) was > 100 µM and the TGI (DU-145 prostate) was > 100 µM. The TGI (SF-539 CNS) was > 100 µM, the TGI (OVCAR-8 ovarian) was > 100 µM and the TGI (HL-60(TB) leukemia) was > 100 µM. For the same compound, the TGI (SF-295 CNS) was 84.3 µM, the TGI (SK-OV-3 ovarian) was > 100 µM and the TGI (MOLT-4 leukemia) was > 100 µM. The TGI (SNB-75 CNS) was > 100 µM and the TGI (HOP-92 NSCLC) was 91.9 µM.

In the case of `COCO[C@@H]1C[C@H]2C(O)Nc3ccccc3C(=O)N2C1` (stereo partly drawn), the TGI (MDA-MB-435) is reported as > 100 µM, the TGI (UO-31 renal) is reported as > 100 µM and the TGI (A498 renal) is reported as > 100 µM. For the same compound, the TGI (K-562 leukemia) was > 100 µM, the TGI (OVCAR-3 ovarian) was > 100 µM and the TGI (DU-145 prostate) was > 100 µM. The TGI (SF-539 CNS) was > 100 µM, the TGI (OVCAR-8 ovarian) was > 100 µM and the TGI (HL-60(TB) leukemia) was > 100 µM. The TGI (SF-295 CNS) was > 100 µM, the TGI (SK-OV-3 ovarian) was > 100 µM and the TGI (MOLT-4 leukemia) was > 100 µM. The TGI (SNB-75 CNS) was > 100 µM and the TGI (HOP-92 NSCLC) was > 100 µM.
